These results are taken from patent US20100099109A1, “Methods for Analyzing Drug Response” (NODALITY, INC., A DELAWARE CORPORATION, priority 2008, published 2010).

For data set [1] the following is noted: cited from earlier work.
In data set [2] the test system is U937 cell line. Briefly: Mylotarg/Nocodazole exposure, multiparameter flow cytometry of DNA damage, cell cycle and apoptosis. It counts as cell-based. The following applies: 24 hours exposure. From the text:
ATM activity also phosphorylates Chk2 and p53. […] Cyclin B1 is produced during the G2 phase of the cell cycle and its accumulation drives the cell cycle into M phase. Therefore, low levels of Cyclin B1 mark G1 and S phases, high levels mark G2 phase, and higher levels mark M phase. Histone H3 (S28) becomes phosphorylated in M phase, making p-Histone H3(S28) a useful marker of cells in M phase and not G2. It is also possible to monitor the G2/M phases of the cell cycle by measuring the phosphorylation status of Cdk1, previously known as Cdc2, a cyclin-dependent protein kinase that controls the cell cycle entry from G2 to M phase. An inhibitory phosphorylation on Cdk1 is removed by CDC25C in the M phase transition, allowing G2 cells to be distinguished from M cells based on levels of p-Cdk1. […] Treating cells with the microtubule polymerization inhibitor Nocodazole induces cells cycle arrest in M phase without DNA damage.
(§1) The experimental measurements included forward and side scatter, the use of viability dyes (amine aqua and propidium iodide (PI)), and determination of cell cycle and apoptosis by measuring DNA content with DRAQ5. Additionally, cell cycle progression was measured by determining levels of cyclin B1, phosphorylated histone H3, and phosphorylated CDK-1. All these determinations were made in freshly thawed as well as in cultured cycling cells.
(§2) After incubation with fluorochrome-conjugated antibody panels that recognized: p-H2AX, p-Chk2, p-ATM, p-53, cleaved PARP and cleaved caspase 3, cells were processed for cytometry as described above.
On the technique in general: A flow cytometer gives signals particle by particle.

The subject of data set [3] is Mylotarg refractory cell lines. Briefly: Mylotarg exposure and modulated signaling in resistant cell lines. It counts as cell-based. Particulars: exposed for 5-15 minutes. How it is done:
as §1, §2
(§3) Experiments were conducted in which cell lines were exposed for 5-15 minutes to growth factors and cytokines, after which cells were fixed, permeabilized and incubated with panels of fluorochrome-conjugated antibody panels that recognized intracellular signaling molecules. After processing, cells were acquired on the cytometer.

Data set [4] relates to MDR1 drug pump activity in U937 cells. Briefly: Functional drug transporter assay (DIOC2(3) efflux). It counts as cell-based. Particulars: Mylotarg sensitive cell line U937. How it is done:
(§4) Determination of transporter functional activity: Transporter activity is measured in subpopulations gated for CD45, CD11b, CD34, CD38, and other surface markers including drug transporters themselves. Fluorescent dyes including calcein-acetoxymethyl ester in the presence or absence of inhibitors cyclosporin or PSC-833 for MDR1, reserpine for BCRP-1 and MK571 or probenecid for MRP-1) are used to evaluate the contribution of each transporter to drug efflux
(§5) Cells are thawed, counted and resuspended at 0.222×10^6/ml in RPMI 10% FBS. This example uses 100,000 cells in 450 microliters aliquoted into 6 columns of a 96 well Deep-Well “Cell Plate”. However, the experimental setup is not limited to using 100,000 cells/condition. KG-1 cells are included as a control since they express functional MDR-1.
(§6) 10× Inhibitor or 10× Mock Solutions are prepared by the following protocols: • 10×PSC-833. Stock Conc=2 mM=2000 uM. 10× Conc=20 uM (1:100). • Combine 25 uL stock with 2475 uL DPBS/0.5% BSA • Note Final Conc DMSO=0.1% • Could likely use a range of PSC-833 Concentrations not limited to 2 uM. • This experiment uses Final Concentration of 2 uM • 10×DMSO buffer (mock) • Combine 25 uL DMSO with 2475 uL DPBS/0.5% BSA […]

Data set [5] concerns the target T1, MDR1 drug pump activity in KG-1 cells (Homo sapiens, UniProt P08183).
T1 construct: KG-1 cells are included as a control since they express functional MDR-1; endogenous in cells; host or cells: KG-1 cells
The data set is described as above. The following applies: Mylotarg resistant KG-1 cells; co-incubation with inhibitor. It counts as cell-based. How it is done: as §4, §5, §6

The subject of data set [6] is Mylotarg sensitive cell lines. The data set is described as follows: Mylotarg exposure and modulated signaling in sensitive cell lines. It counts as cell-based. The following applies: exposed for 5-15 minutes. How it is done: as §1, §2, §3

Entries after “also recorded” stand apart in the source; their conditions may differ. Read-outs that look alike come from different tables or passages of the source.

T1 sequence (P08183 whole entry): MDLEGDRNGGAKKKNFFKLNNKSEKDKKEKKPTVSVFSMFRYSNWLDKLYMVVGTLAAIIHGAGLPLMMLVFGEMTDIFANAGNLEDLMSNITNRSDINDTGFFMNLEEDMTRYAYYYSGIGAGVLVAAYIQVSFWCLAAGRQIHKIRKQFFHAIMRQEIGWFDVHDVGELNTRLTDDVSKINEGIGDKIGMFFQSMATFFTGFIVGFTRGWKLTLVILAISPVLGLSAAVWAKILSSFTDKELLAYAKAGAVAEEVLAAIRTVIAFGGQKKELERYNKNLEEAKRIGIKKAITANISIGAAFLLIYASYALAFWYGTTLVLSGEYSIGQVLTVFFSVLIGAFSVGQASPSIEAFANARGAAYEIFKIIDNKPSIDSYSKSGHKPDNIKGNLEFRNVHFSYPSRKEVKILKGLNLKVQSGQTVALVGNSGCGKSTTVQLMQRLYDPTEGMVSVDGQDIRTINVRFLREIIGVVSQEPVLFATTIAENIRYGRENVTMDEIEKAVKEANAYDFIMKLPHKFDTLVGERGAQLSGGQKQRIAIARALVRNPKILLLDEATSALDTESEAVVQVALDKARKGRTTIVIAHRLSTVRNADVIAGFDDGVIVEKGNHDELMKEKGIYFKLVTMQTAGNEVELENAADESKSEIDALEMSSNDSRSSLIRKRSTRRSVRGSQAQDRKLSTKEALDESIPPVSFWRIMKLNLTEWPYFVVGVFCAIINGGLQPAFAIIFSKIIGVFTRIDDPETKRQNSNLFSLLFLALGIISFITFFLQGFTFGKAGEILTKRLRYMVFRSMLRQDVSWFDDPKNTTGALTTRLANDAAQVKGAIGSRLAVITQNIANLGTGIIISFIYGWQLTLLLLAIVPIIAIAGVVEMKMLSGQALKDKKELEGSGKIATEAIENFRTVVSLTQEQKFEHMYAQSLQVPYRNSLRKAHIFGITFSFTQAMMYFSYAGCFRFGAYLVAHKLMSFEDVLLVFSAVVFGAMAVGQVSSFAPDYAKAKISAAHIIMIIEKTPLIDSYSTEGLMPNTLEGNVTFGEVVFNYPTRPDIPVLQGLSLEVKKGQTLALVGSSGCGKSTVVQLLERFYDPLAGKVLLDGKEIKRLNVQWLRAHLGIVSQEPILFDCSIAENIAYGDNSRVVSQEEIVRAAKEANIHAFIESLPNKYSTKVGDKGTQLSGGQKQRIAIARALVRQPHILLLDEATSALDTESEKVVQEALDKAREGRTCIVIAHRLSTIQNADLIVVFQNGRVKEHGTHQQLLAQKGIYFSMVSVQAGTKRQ

With `Nc1ccn([C@@H]2O[C@H](CO)[C@@H](O)[C@@H]2O)c(=O)n1` [Cytarabine], the peak plasma concentration in data set [1] (high dose, 3 g/m2) was 2 µM; in data set [1] (standard dose, 100 mg/m2), “approximately 40 nM”. For `COc1cccc2c1C(=O)c1c(O)c3c(c(O)c1C2=O)C[C@@](O)(C(C)=O)C[C@@H]3O[C@H]1C[C@H](N)[C@H](O)[C@H](C)O1` [Daunorubicin], the peak plasma concentration in data set [1] (25 mg/m2) is 50 ng/mL; in data set [1] (50 mg/m2), 200 ng/mL. Take `COC(=O)Nc1nc2cc(C(=O)c3cccs3)ccc2[nH]1` [Nocodazole]: the “cell cycle arrest (Cyclin B1, p-Histone H3(S28), p-Cdk1)” value in data set [2] was “arrest in M rather than G2”. As for `CCCCCCCCCCCCCC(=O)O[C@@H]1[C@@H](C)[C@@]2(O)[C@@H](C=C(CO)C[C@]3(O)C(=O)C(C)=C[C@@H]23)[C@@H]2C(C)(C)[C@]12OC(C)=O` [PMA, phorbol myristic acetate], in data set [3], the “PMA-mediated p-S6” value was “increase in p-S6”.

Regarding `C/C=C/C[C@@H](C)C(=O)[C@H]1C(=O)N[C@@H](C(C)C)C(=O)N(C)CC(=O)N(C)[C@@H](CC(C)C)C(=O)N[C@@H](C(C)C)C(=O)N(C)[C@@H](CC(C)C)C(=O)N[C@@H](C)C(=O)N[C@H](C)C(=O)N(C)[C@@H](CC(C)C)C(=O)N(C)[C@@H](CC(C)C)C(=O)N(C)[C@@H](C(C)C)C(=O)N1C` [PSC-833], the “effect on intracellular levels of DIOC2(3)” value in data set [4] was “no effect”. In data set [5], the “effect on MDR1 drug pump activity / intracellular levels of DIOC2(3)” value is “blocked; also recorded: significant increase in intracellular reporter”. As to “IL-6: cytokine modulator of JAK/STAT pathways”, the “IL-6 mediated p-Stat1” value in data set [6] is “increased”. Turning to “SCF: growth factor/cytokine modulator of PI3K, Ras/Raf pathways”, the “SCF-mediated p-Akt, p-Erk, and p-S6” value in data set [3] is “increase”.
